Data from US5312816A, “Method of combatting osteoporosis in mammalian subjects, utilizing organic boron compounds” (priority 1993, dated 1994).
Counter-ions that a name gives are not always drawn. Like-named read-outs stand apart in the source and are kept apart here. One block for each molecule: values may come before it.

Columns and labels:
Sprague Dawley Rats = test: Anti-inflammatory activity in Sprague Dawley rats; type: in vivo; conditions: Table IV; 8 mg/kg I.P.
Acid phosphatase [1] = test: Mouse hepatic lysosomal acid phosphatase activity; type: biochemical; conditions: mouse hepatic, 60 min incubation
Excerpt: (§1) 1. Cf1 male mouse hepatic 10% homogenates in 0.25M sucrose+0.001MEDTA,pH 7.2.
(§2) Lysosomal Enzymes - free and total [triton X-100].
1. Acid phosphatase -beta glycerol-3-phosphate, pH 5.0, released IP 720 nm.
Acid phosphatase activity -

Cathepsin D [2] = molecular target: T1, Cathepsin D (Mus musculus, UniProt P18242); test: Mouse hepatic lysosomal cathepsin D activity; type: biochemical; conditions: mouse hepatic, 60 min incubation, read-out: Cathepsin D IC50
T1 construct: azocasein assay pH 5.0
Excerpt: as §1, §2
(§3) 2. Acid Cathepsin D -azocasein-pH 5.0, hydrolytic azo-peptide produce 366 nm.
Cathepsin azo casein activity -

Aryl sulphatase [3] = test: Mouse hepatic lysosomal aryl sulphatase activity; type: biochemical; conditions: 60 min incubation
Excerpt: as §1, §2
3. Aryl sulphatase- p-nitrocatechol sulfate, pH
5. 8 p-nitro-catechol product 510 nm.

Prostaglandin synthetase = molecular target: T2, Prostaglandin synthetase (Bos taurus, UniProt O62664); test: Prostaglandin synthetase (cyclooxygenase), purified beef seminal vesicle; type: biochemical; conditions: Table IX; commercial enzyme preparation; read-out: Beef Prostaglandin Cyclooxygenase IC50
T2 construct: Prostaglandin synthetase purified beef seminal vesicle; from tissue
T2 sequence (O62664 25-600): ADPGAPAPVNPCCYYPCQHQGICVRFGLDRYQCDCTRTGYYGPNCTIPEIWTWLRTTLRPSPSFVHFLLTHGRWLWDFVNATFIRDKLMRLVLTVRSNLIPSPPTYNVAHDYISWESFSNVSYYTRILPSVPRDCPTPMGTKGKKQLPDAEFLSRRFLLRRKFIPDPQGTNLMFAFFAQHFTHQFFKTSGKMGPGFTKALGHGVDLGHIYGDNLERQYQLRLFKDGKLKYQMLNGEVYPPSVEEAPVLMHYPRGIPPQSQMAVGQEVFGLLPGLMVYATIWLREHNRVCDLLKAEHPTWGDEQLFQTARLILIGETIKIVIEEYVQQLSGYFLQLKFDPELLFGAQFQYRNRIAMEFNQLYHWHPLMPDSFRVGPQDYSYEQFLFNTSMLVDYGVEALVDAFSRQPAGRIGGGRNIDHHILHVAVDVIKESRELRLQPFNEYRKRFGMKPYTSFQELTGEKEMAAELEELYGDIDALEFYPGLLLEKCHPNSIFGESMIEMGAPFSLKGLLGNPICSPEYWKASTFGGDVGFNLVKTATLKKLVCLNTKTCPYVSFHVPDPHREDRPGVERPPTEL
Excerpt: (§4) Prostaglandin synthetase purified beef seminal vesicle ^3 H arachidonic acid (86.2 Ci/mmol), tlc separation.

Acid phosphatase [4] = test: Mouse macrophage acid phosphatase activity; type: cell-based; conditions: 60 min incubation, read-out: Acid Phosphatase IC50
Aryl sulphatase [5] = test: Mouse macrophage aryl sulphatase activity; type: cell-based; conditions: 60 min incubation, read-out: Aryl Sulphatase IC50
Trypsin [6] = test: Mouse macrophage trypsin (BAEE) activity; type: cell-based; conditions: 60 min incubation, read-out: Trypsin BAEE IC50
Elastase [7] = test: Mouse macrophage elastase activity; type: cell-based; conditions: 60 min incubation, read-out: Elastase IC50
[8] = test system: Prostaglandin cyclooxygenase; test: Mouse macrophage prostaglandin cyclooxygenase activity; type: cell-based; conditions: 60 min incubation, read-out: Prostaglandin Cyclooxygenase IC50
Excerpt: (§5) 3. Mouse macrophages J774A.1 BALB/c
as §4

human osteosarcoma cells = test: Cytotoxicity against growth of human osteosarcoma cells; type: cell-based; conditions: Table XX; human osteosarcoma (ATCC); read-out: Cytoxicity ED-50 Osteosarcoma
[9] = test system: human osteoporosis fibroblastic cells; test: Cytotoxicity against growth of human osteoporosis fibroblastic cells; type: cell-based; conditions: Fibroblast, Table XX, read-out: Cytoxicity ED-50 Osteoporosis Fibroblasts
Cf1 male mice [10] = test: Writhing reflex, 0.6% acetic acid; type: in vivo; conditions: Mus musculus, ip, Table IV
testes = conditions: 250 mg/kg for 16 days; cited from earlier work
[11] = test system: urinary excretion of calcium, magnesium, phosphorus; conditions: in the diet at 3 mg/day; cited from earlier work
Cf1 male mice [12] = test: Anti-inflammatory screen, Winter's test, 2% carrageenan hind foot; type: in vivo; conditions: Table XIV; unit inferred; unit assumed
Protocol: Anti-inflammatory Screen- Cf1 - male mice-Winter's Test 2% carrageenan S.C. plantar surface of hind foot, drugs administered @8 or 10 mg/kg I.P. 2X
Winter, C.A., et al, Proc. Soc.

Cf1 male mice [13] = test: Writhing reflex, 0.6% acetic acid; type: in vivo; conditions: Table XIV; unit inferred; unit assumed
Protocol: Writhing reflex- Cf1 -male mice- 0.6% acetic acid I.P. drugs administered @20 mg/kg/ I.P. 20 min. later - the # of stretches/10 min.
Hendershot, L.C., et al, J.

Trypsin [14] = test: Mouse hepatic trypsin activity; type: biochemical; conditions: 60 min incubation
Excerpt: as §1
1. Trypsin- N-benzoyl-L-arginine ethyl ester pH 8.0, hydrolytic product 253 nm.

Elastase [15] = test: Mouse hepatic elastase activity; type: biochemical; conditions: Table VI, 60 min incubation
Excerpt: as §1
(§6) 2. Elastase- N-succinyl-L-alanyl-L-alanine-p-nitroanilide, pH 8.0, p-nitro anilide 410 nm.
Elastase activity - in vitro

Cathepsin D [16] = molecular target: T1, Cathepsin D; test: Mouse macrophage cathepsin D activity; type: cell-based; conditions: 60 min incubation
Excerpt: as §5, §3

[17] = molecular target: Clostridium histolyticum Collagenase Type I; test: Commercial collagenase type I; type: biochemical; conditions: Table IX; commercial enzyme preparation
Excerpt: (§7) 3. Collagenase I, Clostridium histolyticum, bone, skin, tendon, blood vessel, dentine, GI. substrate: rat collagen, N-[propionate-2-3-^3 H] propionylated measured as dpm released.

[18] = molecular target: T3, Porcine Pancreatic Elastase (Sus scrofa, UniProt P00772); test: Porcine pancreatic elastase activity in vitro; type: biochemical; conditions: Table IX; commercial enzyme preparation
T3 construct: purchased; host or cells: porcine pancreas
Excerpt: as §6

Cf1 male mice [19] = test: Hot plate tail flick test; type: in vivo; conditions: Table XIV; unit not given
Pg. cyclooxygenase = molecular target: T4, Pg. cyclooxygenase (Sus scrofa, UniProt A0A287ANF9); test: Porcine seminal vesicles Pg. cyclooxygenase; type: biochemical
T4 construct: Porcine Seminal; from tissue; the methods section prints beef seminal vesicle

Commercial Collagenase = test: Commercial collagenase (type not stated); type: biochemical; conditions: Table XVI; 60 min incubation
Excerpt: as §7
4. Collagenase II, Clostridium histolyticum, cartilage collagen.

[20] = Table VII, mouse macrophage cultured cells

T1 sequence (P18242 65-410): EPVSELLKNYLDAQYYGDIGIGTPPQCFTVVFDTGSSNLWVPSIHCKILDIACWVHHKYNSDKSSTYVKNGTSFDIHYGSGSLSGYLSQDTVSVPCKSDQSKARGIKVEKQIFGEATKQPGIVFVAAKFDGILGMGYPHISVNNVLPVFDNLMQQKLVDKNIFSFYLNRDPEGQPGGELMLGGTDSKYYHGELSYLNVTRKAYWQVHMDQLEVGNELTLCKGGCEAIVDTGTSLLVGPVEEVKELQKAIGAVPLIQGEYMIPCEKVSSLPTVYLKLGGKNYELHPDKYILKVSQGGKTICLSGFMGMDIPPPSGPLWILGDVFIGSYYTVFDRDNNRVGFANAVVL
T3 sequence (P00772 27-266): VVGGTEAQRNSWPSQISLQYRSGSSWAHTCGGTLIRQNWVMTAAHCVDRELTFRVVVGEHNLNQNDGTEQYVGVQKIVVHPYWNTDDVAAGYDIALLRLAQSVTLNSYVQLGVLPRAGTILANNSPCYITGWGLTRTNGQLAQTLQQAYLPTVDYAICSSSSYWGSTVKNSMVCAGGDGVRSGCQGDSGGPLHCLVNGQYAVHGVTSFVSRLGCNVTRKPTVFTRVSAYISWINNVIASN
T4 sequence (A0A287ANF9 25-600): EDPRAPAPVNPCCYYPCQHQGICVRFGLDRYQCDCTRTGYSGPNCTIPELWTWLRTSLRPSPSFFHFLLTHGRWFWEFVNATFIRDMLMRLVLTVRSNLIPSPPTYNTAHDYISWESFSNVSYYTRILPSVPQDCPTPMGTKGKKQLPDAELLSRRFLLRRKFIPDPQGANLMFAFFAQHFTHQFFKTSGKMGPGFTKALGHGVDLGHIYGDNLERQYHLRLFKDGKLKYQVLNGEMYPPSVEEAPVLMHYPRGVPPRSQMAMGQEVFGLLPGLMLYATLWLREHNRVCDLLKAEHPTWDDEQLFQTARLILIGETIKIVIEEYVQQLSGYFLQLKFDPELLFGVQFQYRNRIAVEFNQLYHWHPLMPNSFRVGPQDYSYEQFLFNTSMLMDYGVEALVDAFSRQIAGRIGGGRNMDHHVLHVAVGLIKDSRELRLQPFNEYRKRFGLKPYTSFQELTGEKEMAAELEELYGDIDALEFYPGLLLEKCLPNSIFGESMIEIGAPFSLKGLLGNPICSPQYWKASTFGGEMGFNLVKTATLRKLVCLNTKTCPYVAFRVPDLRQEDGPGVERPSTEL

IC50 (Acid phosphatase [1]; Table V): 4.22 µM
IC50 (Cathepsin D [2]; Table V): 3.66 µM
IC50 (Aryl sulphatase [3]; Table V): 5.85 µM
IC50 (Prostaglandin synthetase): 1.3 µM
IC50 (Acid phosphatase [4]; [20]): 3.96 µM
IC50 (Aryl sulphatase [5]; [20]): 1.37 µM
IC50 (Trypsin [6]; Table VIII, mouse macrophages): 2.14 µM
IC50 (Elastase [7]; Table VIII, mouse macrophages): 1.49 µM
IC50 ([8]; Table VIII, mouse macrophages): 1.61 µM
Compound: C[N+](C)(C)[BH2-]C(=O)NO [Compound 14, Trimethylamine-boranecarbohydroxamic acid tetraphenylborate salt.]
Anti-Inflammatory Activity Sprague Dawley Rats (Sprague Dawley Rats): 60 % Control
IC50 (human osteosarcoma cells): 1.14 µg/mL
IC50 [9]: 1.21 µg/mL
response vs control in vivo at 8 mg/kg (Cf1 male mice [10]; 8 mg/kg I.P.): 50%

Compound: OB(O)O [boric acid]
effect on testes (testes): severe degeneration of the testes with giant cell formation, pyknosis and exfoliation
urinary excretion of calcium, magnesium and perhaps phosphorus [11]: blocks the urinary excretion of calcium, magnesium and perhaps phosphorus

Compound: C[NH+](C)[BH2-]C(=O)O [Compound 23, Dimethylamine-carboxyborane, sodium salt]
Anti-Inflammation Cf1 Mice (Cf1 male mice [12]): 68.5%
Anti-Inflammatory Activity Sprague Dawley Rats (Sprague Dawley Rats): 55 % Control
Writhing Reflex Mice (Cf1 male mice [13]): 70.4%
IC50 (Acid phosphatase [1]; Table V): 7.89 µM
IC50 (Acid phosphatase [1]; Table XV): 3.58 µM
IC50 (Cathepsin D [2]; Table V): 3.76 µM
IC50 (Cathepsin D [2]; Table XV): 7.65 µM
IC50 (Aryl sulphatase [3]; Table XV): 2.83 µM
IC50 (Prostaglandin synthetase): 3.25 µM
IC50 (Trypsin [14]; Table VI, mouse hepatic, read-out: Trypsin IC50): 0.83 µM
IC50 (Trypsin [14]; Table XVI, read-out: Mouse Hepatic Trypsin IC50): 9.95 µM
IC50 (Elastase [15]): 25.9 µM
IC50 (Cathepsin D [16]; Table VII, mouse macrophage cultured cells, DMEM +10% FCS +P/S, read-out: Cathepsin D IC50): 6.39 µM
IC50 (Cathepsin D [16]; Table XVII, mouse macrophage, read-out: Cathepsin D pH 5.0 IC50): 2.28 µM
IC50 (Acid phosphatase [4]; [20]): 4.75 µM
IC50 (Acid phosphatase [4]; Table XVII, mouse macrophage): 1.42 µM
IC50 (Aryl sulphatase [5]; Table XVII, mouse macrophage): 1.6 µM
IC50 (Trypsin [6]; Table VIII, mouse macrophages): 3.1 µM
IC50 (Trypsin [6]; Table XVIII, mouse macrophage): 2.21 µM
IC50 (Elastase [7]; Table VIII, mouse macrophages): 2.67 µM
IC50 (Elastase [7]; Table XVIII, mouse macrophage): 6.35 µM
IC50 ([8]; Table VIII, mouse macrophages): 2.91 µM
IC50 ([8]; Table XVIII, mouse macrophage): 2.07 µM
IC50 [17]: 667 µM
IC50 [18]: 37.3 µM
Tail Flick Mice (Cf1 male mice [19]): 156
IC50 (Pg. cyclooxygenase): 3.1 µM
IC50 (Commercial Collagenase): 506 µM
response vs control in vivo at 20 mg/kg (Cf1 male mice [10]): 2%
